Assays:
UA196 worms = test: Chemotaxis assay of UA196 worms; format: in vivo, C. elegans; details: 50 µM ligand, day 10, E. coli attractant vs ethanol repellent
Experimental: For chemotaxis assay, the Chemotaxis (CTX) media plates (2% Agar, 5 mM KH2PO4, 1 mM CaCl2, 1 mM MgSO4, 75 µM FUDR), referred to as PLATE 7, and CTX buffer (5 mM KH2PO4, 1 mM CaCl2, and 1 mM MgSO4) were prepared using previous protocols[24],[78],[85],[86]. The PLATE 7 (without ligand) were treated with ligand (50 µM, stock conc. = 10 mM in DMSO) that was dissolved in CTX buffer (total volume = 300 µL) and was spotted atop the CTX media plates at 20 °C, referred to as PLATE 8. For CTX assay, we prepared another plate referred to as PLATE 9, which was PLATE 7 divided into four equal quadrants and designated as A and C (diagonally opposite), B and D (diagonally opposite). […] The experiment on the WMicroTracker ARENA plate reader (Phylumtech, Santa Fe, Argentina) started within 1 h of the transfer of the worms at 20 °C. […] On day 3, a total of 50 worms were transferred to the center of the PLATE 9 using CTX buffer ( ~20 µL) and the number of worms were counted under an Olympus microscope (SZ-6145, Waltham, MA). […] The worm activity was monitored using the WMicroTracker ARENA plate reader (Phylumtech, Santa Fe, Argentina) at 20 °C for 2 h. […] For day 10, 50 worms (N2 or UA196) from PLATE 7 (without ligand) or PLATE 8 (with 50 µM ligand) were transferred to PLATE 9 using CTX buffer ( ~ 20 µL) and the number of worms were counted under an Olympus microscope (SZ-6145, Waltham, MA). […]

αS PMCA samples = biological target: T1, αS PMCA samples (Homo sapiens, UniProt P37840); test: Proteinase K digestion of PMCA samples; format: biochemical; details: cycle three to cycle five, in the presence of NS132
T1 construct: made in house; host or cells: E. coli BL21(DE3)
Experimental: A Protease K (PK) solution at 50 μg/mL (IBI Scientific, Dubuque, IA) in digestion buffer (10 mM Tris, pH 8.0, 2 mM CaCl2) was diluted (0.1 eq.) into 30 μL of PMCA solution (with or without NS132) and incubated for 30 min at 37 °C. Subsequently, the samples were diluted (1:1, v/v) in SDS Protein Gel Loading Dye 2× (Quality Biological, Gaithersburg, MD) and loaded on Mini-PROTEAN TGX Stain-Free Protein Gel (BioRad, Hercules, CA). The gel was stained using the Fairbanks staining method and imaged using ChemiDoc MP (BioRad, Hercules, CA).

For `Cc1ccc(NC(=O)c2ccc(NC(=O)c3ccc([N+](=O)[O-])c(NCCc4c[nH]c5ccccc45)n3)c(NCC3CCCCC3)n2)c(OCC(=O)O)n1` [NS132], the “behavioral deficits / chemotaxis index of UA196 worms, in words” value (UA196 worms) was “able to rescue behavioral deficits” and the “proteinase K (PK) resistance of PMCA samples, in words” value (αS PMCA samples) was “completely degraded”.
